Patent US20250319073A1, “COMPOSITIONS AND METHODS FOR THE TREATMENT OF HUNTINGTON’S DISEASE AND HTT PROTEINOPATHIES” (priority 2022, published 2025)

Tests used:
R6/2 mice = experiment: 18F-FDG PET brain glucose uptake in R6/2 mice; assay type: in vivo, mouse
Procedure: Study Summary—A total of 46 male R6/2 mice and 15 male wild-type littermate control mice (WT) were used in the study. The mice were genotyped and the R6/2 mice were divided into different treatment groups based on their pre-treatment body weight. The treatment with Compound (Ia) (0.5 or 5 mg/kg; 10 ml/kg, intraperitoneally (i.p.), QD) or Vehicle (10 ml/kg, i.p., QD) was started at 4 weeks of age. Body weights were measured before the treatment onset and continued twice a week until the end of the study. Fine motor kinematic analysis and rotarod test were performed at 10 weeks of age and the open field activity and clasping behavior were measured at 12 weeks of age for all mice. At 8 and 12 weeks of age the glucose uptake was measured by ^18F-FDG PET and the striatal metabolites were measured using MR spectroscopy for 9-10 mice per group. At 13 weeks of age 9-10 mice per group were subjected to tissue sample collection, and the brain and blood samples were collected. The blood samples were used to prepare peripheral blood mononuclear cells (PBMCs) on which the flow cytometry/luminescence analysis was performed for following assays: mitochondrial reactive oxygen species (ROS) (MitoSox), and ATP levels (Cell TiterGlow).
^18F-FDG-PET Analysis—At 8 and 12 weeks of age, 9 mice per group were fasted overnight (water allowed ad libitum) to standardize the blood glucose level. […]

[1] = system: Peripheral Blood Mononuclear Cells (PBMC); experiment: MitoSOX mitochondrial ROS assay (flow cytometry) in PBMCs of treated mice; assay type: in vivo, mouse; conditions: R6/2 mice, 0.5 mg/kg / 5 mg/kg i.p. QD, PBMCs collected at 13 weeks of age
Procedure: Euthanasia & Sample Collection—At 13 weeks of age, 9 mice per group were euthanized by deep anesthesia with sodium pentobarbital (180 mg/kg). The remaining mice were euthanized and any samples were not collected, except the tail and ear samples. A terminal blood sample (as much as possible) was collected by cardiac puncture into a syringe. The whole blood was placed in Li-Hep tube at RT and used immediately for preparation of PBMCs. The whole brain was collected and fresh frozen in liquid nitrogen and stored at −80° C. Blood was collected also from extra animals as staining controls for the flow cytometry assays (n=3 extra animals per day). Tail and ear samples were collected for possible post-study re-genotype analysis. […] Right before measurement 1 μL of propidium iodide was added and the cell number and viability was determined by MACSquant Analyzer 10 flow cytometer. […] The cells were analyzed immediately after the staining using the MACSQuant Analyzer 10 (Miltenyi Biotec) and Cytation 3 (Cell titerglow). […] Oxidation of MitoSOX™ Red reagent by superoxide produces red fluorescence and can be used to reliably the relative differences in mitochondrial ROS formation in cells. […] Concentrations exceeding 5 μM can produce cytotoxic effects, including altered mitochondrial morphology and redistribution of fluorescence to nuclei and the cytosol. • 2. […]

SMILES: Cc1cc(O)cc(C)c1C[C@H](NC(=O)[C@H](N)CCCNC(=N)N)C(=O)N[C@@H](CCCCN)c1nc(Cc2ccccc2)no1.Cl.Cl [Compound (Ia), (R)-2-amino-N—((S)-1-(((S)-5-amino-1-(3-benzyl-1,2,4-oxadiazol-5-yl)pentyl)amino)-3-(4-hydroxy-2,6-dimethylphenyl)-1-oxopropan-2-yl)-5-guanidinopentanamide]
- 18F-FDG uptake (radioactivity) in olfactory bulb compared to vehicle treated R6/2 mice (R6/2 mice; 5 mg/kg i.p. QD, 12 weeks of age, p<0.05, Mixed-effects model (REML)): statistically significantly higher radioactivity
- 18F-FDG uptake in various brain areas (R6/2 mice; i.p. QD, trend, not statistically significant except olfactory bulb): increased
- mitochondrial ROS formation (MitoSOX) in PBMCs, R6/2+Vehicle vs treated R6/2 [1]: no significant differences
